Experiment [1] concerns the target Cathepsin B (Homo sapiens) (UniProt P07858). The experiment can be described thus: Inhibition of human cathepsin B using Suc-LLVY-AMC as substrate assessed as remaining enzyme activity at 20 uM incubated for 15 mins prior to substrate addition measured for 30 mins by fluorescence assay.
Experiment [2] has as its target T1, Calpain-1 catalytic subunit (Homo sapiens) (UniProt P07384).
T1 sequence (whole entry): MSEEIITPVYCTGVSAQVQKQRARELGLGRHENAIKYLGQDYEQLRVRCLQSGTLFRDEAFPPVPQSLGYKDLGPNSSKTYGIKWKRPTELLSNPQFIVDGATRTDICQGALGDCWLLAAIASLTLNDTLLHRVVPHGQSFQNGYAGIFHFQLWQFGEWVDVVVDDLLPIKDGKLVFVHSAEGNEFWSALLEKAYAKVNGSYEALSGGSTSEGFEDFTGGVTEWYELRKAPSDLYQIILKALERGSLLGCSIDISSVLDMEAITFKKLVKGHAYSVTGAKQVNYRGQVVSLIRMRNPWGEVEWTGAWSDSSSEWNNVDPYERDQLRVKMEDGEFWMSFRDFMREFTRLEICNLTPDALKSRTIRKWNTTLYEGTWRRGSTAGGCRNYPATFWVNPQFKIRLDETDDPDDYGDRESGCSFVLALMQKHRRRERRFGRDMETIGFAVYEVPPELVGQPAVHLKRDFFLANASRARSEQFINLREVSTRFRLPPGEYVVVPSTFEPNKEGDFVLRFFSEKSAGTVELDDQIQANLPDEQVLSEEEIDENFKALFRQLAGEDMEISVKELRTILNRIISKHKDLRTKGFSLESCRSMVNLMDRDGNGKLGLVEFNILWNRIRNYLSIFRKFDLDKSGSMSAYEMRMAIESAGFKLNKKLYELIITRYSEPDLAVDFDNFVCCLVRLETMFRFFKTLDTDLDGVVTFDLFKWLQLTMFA
Description: Inhibition of human calpain 1 using Suc-LLVY-AMC as substrate assessed as remaining enzyme activity at 20 uM incubated for 5 mins prior to substrate addition measured for 30 mins by fluorescence assay.

Experiment [3] addresses T2, Proteasome Macropain subunit MB1 (Homo sapiens, UniProt P28074).
T2 sequence (P28074 whole entry): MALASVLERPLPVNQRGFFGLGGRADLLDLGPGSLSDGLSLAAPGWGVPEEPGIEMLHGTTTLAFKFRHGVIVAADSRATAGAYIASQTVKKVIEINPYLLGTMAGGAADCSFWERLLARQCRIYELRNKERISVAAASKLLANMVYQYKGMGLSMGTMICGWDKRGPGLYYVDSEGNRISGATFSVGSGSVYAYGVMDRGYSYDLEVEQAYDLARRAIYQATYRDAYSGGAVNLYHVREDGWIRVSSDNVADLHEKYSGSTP
The experiment can be described thus: Noncompetitive inhibition of chymotrypsin-like activity of human constitutive 20s proteasome beta-5 subunit using Suc-LLVY-AMC as substrate assessed as inhibition constant for dissociation of enzyme-substrate-inhibitor complex incubated for 15 mins prior to substrate addition measured after 45 mins by fluorescence assay.

For experiment [4], the target named is T2, Proteasome Macropain subunit MB1. Description: Noncompetitive inhibition of chymotrypsin-like activity of human constitutive 20s proteasome beta-5 subunit using Suc-LLVY-AMC as substrate assessed as inhibition constant for dissociation of enzyme-inhibitor complex incubated for 15 mins prior to substrate addition measured after 45 mins by fluorescence assay.

Experiment [5] has as its target Proteasome Macropain subunit (Homo sapiens, UniProt P49721). The experiment can be described thus: Inhibition of trypsin-like activity of human constitutive 20s proteasome beta-2 subunit using Boc-LRR-AMC as substrate assessed as remaining activity incubated for 15 mins prior to substrate addition measured after 45 mins by fluorescence assay.
The target in experiment [6] is T2, Proteasome Macropain subunit MB1.
Description: Inhibition of chymotrypsin-like activity of human constitutive 20s proteasome beta-5 subunit using Suc-LLVY-AMC as substrate assessed as remaining activity incubated for 15 mins prior to substrate addition measured after 45 mins by fluorescence assay
In experiment [7] the target is T3, Proteasome Macropain subunit PRE2 (Saccharomyces cerevisiae S288c, UniProt P30656).
T3 sequence (P30656 whole entry): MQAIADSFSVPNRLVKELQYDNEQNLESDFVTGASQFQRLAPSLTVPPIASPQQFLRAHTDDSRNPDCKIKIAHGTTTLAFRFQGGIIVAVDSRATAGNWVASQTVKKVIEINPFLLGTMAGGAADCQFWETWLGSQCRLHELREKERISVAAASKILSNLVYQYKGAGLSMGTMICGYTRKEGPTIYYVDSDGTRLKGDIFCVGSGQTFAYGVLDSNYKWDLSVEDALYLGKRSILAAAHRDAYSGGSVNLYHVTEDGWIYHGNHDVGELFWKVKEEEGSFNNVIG
Description: Inhibition of chymotrypsin-like activity of yeast 20S proteasome beta-5 subunit using Suc-LLVY-AMC as substrate measured up to 45 mins by fluorescence assay

Activity calls are given as the source filed them. The rule behind the calls is not given here.

As usually defined, the Ki is the dissociation constant of the complex between target and ligand, obtained from inhibition or displacement. By IC50 is commonly meant the point on the concentration scale where inhibition reaches its midpoint.

Chain of Proteasome Macropain subunit (P49721 whole entry): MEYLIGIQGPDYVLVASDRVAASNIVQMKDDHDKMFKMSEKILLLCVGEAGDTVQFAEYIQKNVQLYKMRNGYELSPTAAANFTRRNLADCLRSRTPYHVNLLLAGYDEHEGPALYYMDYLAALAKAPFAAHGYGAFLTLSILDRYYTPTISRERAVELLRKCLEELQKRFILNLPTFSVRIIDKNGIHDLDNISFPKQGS

As for `C[C@H](NC(=O)[C@@H](N)Cc1ccc(OCc2ccccc2)cc1)C(=O)N[C@@H](C[C@]1(O)C(=O)Nc2ccccc21)C(=O)NCc1ccccc1`, the inhibition result in experiment [1] and in experiment [2] was “inactive” in each case. Further, the Ki in experiment [3] and in experiment [4] was 24.5 µM in each case. Further, the figures for the IC50 entry in experiment [5], in experiment [6] and in experiment [7] were “Not Active”, 11.6 µM and 9.4 µM, respectively.

The record behind these values is ChEMBL document CHEMBL2331312, “Dimerized linear mimics of a natural cyclopeptide (TMC-95A) are potent noncovalent inhibitors of the eukaryotic 20S proteasome” (J Med Chem, 2013).
